Experiments:
patients with ALS = conditions: 27 patients with ALS, 5 mg of THC twice daily; cited from earlier work
[1] = test system: experimental model of ALS; conditions: prior art statement; cited from earlier work
TDP-43 transgenic mice [2] = experiment: Rotarod test in TDP-43 transgenic mice; type: in vivo, mouse; conditions: 10 mg/kg/day i.p.; for motor performance on rotarod compared to wild type: vs wild type
Procedure: (§1) A transgenic mouse model of ALS, TDP-43, was used to determine the effects of the cannabinoids in treatment of symptoms of ALS.
(§2) The TDP-43 transgenic and wild-type mice were subjected to genotyping to identify the presence of mutant TDP-43 gene. These mice were used for a chronic i.p. treatment (from 60 days of age up to the age of 90 days) with cannabinoid or vehicle.
(§3) All studies were conducted in male mice (n=6-8 subjects in each experimental group).
(§4) The neuroprotective effects of 2 different phytocannabinoids (CBDV and CBDA) were investigated. The cannabinoids were administered at a dose of 10 mg/kg/day.
(§5) Animals were recorded for neurological decline by testing rotarod performance and observing limb clasping during the whole treatment period. The weight of the animals was also recorded during the treatment period.
(§6) Data were assessed using one-way (immunostaining data) or two-way (rotarod data) ANOVA followed by an appropriate post-hoc test (Student Newman-Keuls for immunostaining data, and Bonferroni for behavioural data) significance was reported at p≤0.05. Data shown in the figures represent “p<0.01, ***p<0.001.
The rotarod test was utilised to quantify the muscle weakness characteristic of TDP-43 transgenic mice.

TDP-43 transgenic mice [3] = experiment: GFAP immunostaining of spinal cord astrocytes in TDP-43 transgenic mice; type: in vivo, mouse; conditions: TDP-43 transgenic male mice, 10 mg/kg/day i.p. from 60 to 90 days of age, FIG. 2
Procedure: as §1, §2, §3, §4
(§7) Animals were euthanized at the end of the treatment period and their spinal cords collected for biochemical and histopathological analyses.
as §6
The reduction of spinal motor neurons in TDP-43 transgenic mice was associated with an elevation in the number of astrocytes labelled with Glial fibrillary acidic protein (GFAP) immunostaining, in particular activated astrocytes identified by analysis of their morphological characteristics (e.g. increased cell shape and size, reduction in the length of processes).

TDP-43 transgenic mice [4] = experiment: Weight gain in TDP-43 transgenic mice; type: in vivo, mouse; conditions: TDP-43 transgenic male mice, 10 mg/kg/day i.p., FIG. 6A/6B
Procedure: as §1, §2, §3, §4, §5
The weight gain of animals was also monitored, this is a variable which is frequently used to monitor disease progression in animal models of ALS.

TDP-43 transgenic mice [5] = experiment: Nissl-stained spinal motor neurons in TDP-43 transgenic mouse model of ALS; type: in vivo; conditions: TDP-43 transgenic male mice, 10 mg/kg/day i.p. from 60 to 90 days of age, vs vehicle (p<0.05), FIG. 1
Procedure: as §1, §2, §3, §4, §7, §6

TDP-43 transgenic mice [6] = experiment: lba-1 immunostaining of spinal cord microglial cells in TDP-43 transgenic mice; type: in vivo, mouse; conditions: TDP-43 transgenic male mice, 10 mg/kg/day i.p. from 60 to 90 days of age, FIG. 3
Procedure: as §1, §2, §3, §4, §7
Data were assessed using one-way (immunostaining data) or two-way (rotarod data) ANOVA followed by an appropriate post-hoc test (Student Newman-Keuls for immunostaining data, and Bonferroni for behavioural data) significance was reported at p≤0.05. […]
The number of microglial cells in the spinal cord was quantified using lba-1 immunostaining, and again differentiating resting and activated cells through the analysis of their morphological characteristics (e.g. cell shape and size, type of processes). […] This was also seen when the ratio between cell body area and cell process length was calculated.

TDP-43 transgenic mice [7] = experiment: Limb clasping in TDP-43 transgenic mice; type: in vivo, mouse; conditions: TDP-43 transgenic male mice, 10 mg/kg/day i.p., FIG. 5
Procedure: as §1, §2, §3, §4, §5, §6

[8] = test system: mSOD1-transgenic (G93A) mice; experiment: Neurological score in SOD-1 transgenic mice; type: in vivo, mouse; conditions: SOD-1 mutant male mice, treated from 10 to 21 weeks of age; BDS 10 mg/kg i.p., olesoxime 3 mg/kg s.c., FIG. 8
Procedure: (§8) A transgenic mouse model of ALS, SOD1, was used to determine the effects of the combined treatment of a drug used in the treatment of ALS, olesoxime, with THC.
(§9) mSOD1-transgenic (G93A) and wild-type mice were subjected to genotyping to identify the presence of mutant SOD-1. These mice were used for chronic treatment (from 10 weeks of age up to the age of 21 weeks) with test article or vehicle.
as §3
(§10) The treatment groups were as follows: THC-BDS (10 mg/kg; i.p.); CBD-BDS (10 mg/kg; i.p); olesoxime (3 mg/kg; s.c.); a combination of THC-BDS and olesoxime; and vehicle. A group of wild-type animals were also treated with vehicle.
(§11) Animals were recorded for neurological decline by testing rotarod performance during the whole treatment period. Animals were recorded for neurological decline (using a previously published ALS-related neurological scale; de Munck et al., 2013).
(§12) Data were assessed using one-way (immunostaining data) or two-way (rotarod data) ANOVA followed by an appropriate post-hoc test (Student Newman-Keuls for immunostaining data, and Bonferroni for behavioural data) significance was reported at p≤0.05. Data shown in the figures represent “p<0.01, ***p<0.001

[9] = test system: mSOD1-transgenic (G93A) mice; experiment: Nissl-stained motor neurons in ventral horn of spinal cord in SOD-1 transgenic mice; type: in vivo, mouse; conditions: SOD-1 mutant male mice vs vehicle-treated mutant mice; BDS 10 mg/kg i.p., olesoxime 3 mg/kg s.c., 10 to 21 weeks of age, FIG. 9
Procedure: as §8, §9, §3, §10, §7, §12
The number of motor neurons in the ventral horn of the spinal cord was quantified using Nissl staining.

[10] = test system: mSOD1-transgenic (G93A) mice; experiment: Rotarod performance in SOD-1 transgenic mice; type: in vivo, mouse; conditions: SOD-1 transgenic male mice, treated from 10 to 21 weeks of age; BDS 10 mg/kg i.p., olesoxime 3 mg/kg s.c., FIG. 7
Procedure: as §8, §9, §3, §10, §11, §12

ALS patients = conditions: in some patients; cited from earlier work

CCCCCc1cc(O)c2c(c1)OC(C)(C)[C@@H]1CCC(C)=C[C@@H]21 [dronabinol]
effect on the cramps associated with ALS (patients with ALS): failed to have a significant effect

CCCCCc1cc(O)c2c(c1)OC(C)(C)c1ccc(C)cc1-2 [CBN, cannabinol, reference compound]
neuroprotection in an experimental model of ALS [1]: neuroprotective

CCCCCc1cc(O)c2c(c1)OC(C)(C)[C@@H]1CCC(C)=C[C@@H]21 [THC, Tetrahydrocannabinol]
neuroprotection in an experimental model of ALS [1]: neuroprotective

C=C(C)[C@@H]1CCC(C)=C[C@H]1c1c(O)cc(CCC)cc1O [CBDV, Cannabidivarin]
motor performance on rotarod compared to wild type (TDP-43 transgenic mice [2]; TDP-43 mice at 12 weeks of age): significantly impaired
ratio between cell body area and process length (GFAP-labelled astrocytes) (TDP-43 transgenic mice [3]): reduced
total immunoreactivity for GFAP (TDP-43 transgenic mice [3]): reduced
marked weight loss (weight gain monitoring) (TDP-43 transgenic mice [4]): reduce
loss of Nissl-stained motor neurons in the spinal cord (TDP-43 transgenic mice [5]): almost completely recovered
lba-1 immunostaining changes (cell bodies, cell processes, ratio), all parameters (TDP-43 transgenic mice [6]): reversed the changes

C=C(C)[C@@H]1CCC(C)=C[C@H]1c1c(O)cc(CCCCC)c(C(=O)O)c1O [CBDA, Cannabidiolic acid]
performance on the rotarod compared to vehicle (TDP-43 transgenic mice [2]; TDP-43 mice at 12 weeks of age, vs vehicle): significantly superior performance
motor performance on rotarod compared to wild type (TDP-43 transgenic mice [2]; TDP-43 mice at 12 weeks of age): significantly impaired
rotarod performance (latency to fall) during disease progression (TDP-43 transgenic mice [2]; TDP-43 transgenic male mice, even at advanced stages of the disease, FIG. 4): attenuated the rotarod worsening
ratio between cell body area and process length (GFAP-labelled astrocytes) (TDP-43 transgenic mice [3]): reduced
total immunoreactivity for GFAP (TDP-43 transgenic mice [3]): reduced
increase in limb clasping (TDP-43 transgenic mice [7]): strongly and significantly attenuated
marked weight loss (weight gain monitoring) (TDP-43 transgenic mice [4]): prevent
loss of Nissl-stained motor neurons in the spinal cord (TDP-43 transgenic mice [5]): almost completely recovered
lba-1 immunostaining changes (cell bodies, cell processes, ratio), all parameters (TDP-43 transgenic mice [6]): reversed the changes

CC(C)CCC[C@@H](C)[C@H]1CC[C@H]2[C@@H]3CCC4=CC(=NO)CC[C@]4(C)[C@H]3CC[C@]12C [olesoxime]
elevated Neurological Score (neurological decline) [8]: non-significant trends towards a reduced score
number of Nissl-stained motor neurons in the ventral horn of the spinal cord [9]: statistically significant
rotarod performance (time spent on the rod) [10]: able to attenuate the effect

Nc1nc2ccc(OC(F)(F)F)cc2s1 [riluzole]
onset of ventilator-dependence or tracheostomy (ALS patients): delays
